The test system of assay [1] is southern armyworm, cotton aphid, tobacco budworm and greenbug. Nature of the assay: Systemic tests (soil drench / root uptake, systemic evaluation). Format: in vivo. The method, then: For southern root-knot nematode and systemic tests for southern armyworm, cotton aphid, tobacco budworm and greenbug, a stock solution or suspension was prepared by adding 15 mg of the test compound to 250 mg of dimethylformamide, 1250 mg of acetone and 3 mg of the emulsifier blend referenced above. Water was then added to provide a test compound concentration of 150 ppm. When necessary, sonication was provided to insure complete dispersion.
Southern armyworm on tomato—systemic evaluation: This test was conducted in conjunction with the southern root-knot nematode evaluation (discussed below). The tomato plants, grown in the soil (at an initial compound test screening rate of 6.6 ppm soil concentration or about 150 ppm solution concentration) for nematode evaluation, were then utilized for evaluation of a compound's uptake via roots and subsequent systemic transport to the tomato foliage. […]
Cotton aphid and tobacco budworm (on cotton) and greenbug and tobacco budworm (on sorghum)—systemic evaluation: A 7.0 ml aliquot of the 150 ppm nematode test solution was applied to deliver the equivalent of 10.0 ppm soil concentration dose as a drench to 6 cm pots containing cotton and sorghum plants. […] Again at six days, the plants were rated for aphid activity and the cotton aphids and greenbugs were counted and mortality was assessed. […] Mortality was assessed six days after infestation. […]

A further assay deals with Lucilia sericata. The conditions noted are these: single species; from WO 92/13451 (Schering Agrochemicals Ltd.); cited from earlier work.

For “5-Amino-1-[2,6-dichloro-4-(trifluoromethyl)phenyl]-4-methylsulfinyl-N-hydroxy-N-methyl-1H-pyrazole carboximidamide [Compound 1]”, the “activity in the systemic tests” value in assay [1] is “particularly good activity”. Take “5-Amino-1-[2,6-dichloro-4-(trifluoromethyl)phenyl]-4-trifluoromethylsulfinyl-N-hydroxy-N-methyl-1H-pyrazole carboximidamide [Compound 2]”: in assay [1], the “activity in the systemic tests” value is reported as “particularly good activity”. As for “5-chloro-1-[2,6-dichloro-4-(trifluoromethyl)phenyl]-4-(4,5-1H-pyrazole”, the “activity against Lucilia sericata” value in the assay with Lucilia sericata is “activity against a single species Lucilia sericata”.

Values taken from US6432997B1, “Pyrazole pesticides” (Rhone-Poulenc, Inc., priority 1997, dated 2002).
